From PubChem BioAssay (NCI)
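1) Cells in 96-well plates. 2) Compound, 48 h, 5 concentrations. 3) Linear interpolation between surrounding doses. 4) Unreached endpoint = highest concentration. TGI is the concentration that stops growth completely.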

Key:
Assay in all cases: DTP human tumour cell line panel, 48 h
U251 CNS = tested on: U251 CNS
HL-60(TB) leukemia = tested on: HL-60(TB) leukemia
RXF 393 renal = tested on: RXF 393 renal
SW-620 colon = tested on: SW-620 colon
NCI-H460 lung = tested on: NCI-H460 lung
MALME-3M melanoma = tested on: MALME-3M melanoma
OVCAR-5 ovarian = tested on: OVCAR-5 ovarian
UO-31 renal = tested on: UO-31 renal
NCI-H522 lung = tested on: NCI-H522 lung
TK-10 renal = tested on: TK-10 renal
CCRF-CEM leukemia = tested on: CCRF-CEM leukemia
UACC-62 melanoma = tested on: UACC-62 melanoma
OVCAR-4 ovarian = tested on: OVCAR-4 ovarian
T-47D breast = tested on: T-47D breast

Structure (SMILES)	TGI (U251 CNS) [µM]	TGI (HL-60(TB) leukemia) [µM]	TGI (RXF 393 renal) [µM]	TGI (SW-620 colon) [µM]	TGI (NCI-H460 lung) [µM]	TGI (MALME-3M melanoma) [µM]	TGI (OVCAR-5 ovarian) [µM]	TGI (UO-31 renal) [µM]	TGI (NCI-H522 lung) [µM]	TGI (TK-10 renal) [µM]	TGI (CCRF-CEM leukemia) [µM]	TGI (UACC-62 melanoma) [µM]	TGI (OVCAR-4 ovarian) [µM]	TGI (T-47D breast) [µM]
COc1ccc(-c2c(C#N)c(N)nc(Sc3ccccc3N)c2C#N)cc1	61	> 100	30.1	> 100	> 100	42.4	> 100	> 100	62.5	46	> 100	> 44.5	> 100	17.5
CCc1cn(C2CC(CO)C(CO)S2)c(=O)[nH]c1=O (stereo not given)	> 100	> 100	> 100	> 100	–	> 100	> 100	> 100	> 100	> 100	> 100	> 100	> 100	> 100
CCSc1c2cc(OC)ccc2nc2ccc(OC)cc12	> 79.2	> 100	63	> 100	60.4	28.7	78.4	> 60.7	> 48.2	> 43.7	> 42.9	47.8	> 75.8	> 69.7
c1ccc2c(c1)n1c(N3CCCC3)[n+]3ccccc3c1c1c3cccc[n+]3c(N3CCCC3)n21	> 100	> 100	> 100	> 100	> 100	> 100	> 100	–	> 100	> 100	> 100	> 100	> 100	> 100
CCOC(=O)c1sc2c(c1OC(=O)c1ccco1)c(=O)n(-c1ccccc1)c(=S)n2-c1ccccc1	> 100	52.2	62	> 100	45.5	60.6	> 100	2.71	> 100	> 100	> 100	84.3	> 100	> 100
N#Cc1ccccc1NC(=O)C(O)C(O)C(O)C(O)C=O (stereo not given)	> 100	> 100	> 100	> 100	> 100	> 100	> 100	> 100	> 100	> 100	> 100	> 100	> 100	> 100
COc1ccc(-n2c(C)nc3ccc(NC4OC(COC(C)=O)C(OC(C)=O)C(OC(C)=O)C4OC(C)=O)cc3c2=O)cc1 (stereo not given)	> 100	48.7	87.4	> 100	> 100	> 100	> 100	> 100	47.5	> 100	–	> 100	> 100	> 100
COC(=O)c1c(C)c2c(c(C)c1O)OC(=O)c1c(C)cc(O)c(C=O)c1O2	> 100	> 100	> 100	> 100	> 100	> 100	> 100	–	> 100	> 100	> 100	> 100	> 100	> 100
CCOC(=O)C1=C(C)N(Cc2ccccc2)C2(O)C=CC(=O)C3C(=O)N(c4ccccc4)C(=O)C132 (stereo not given)	11.8	4.98	2.94	–	4.77	7.68	9.85	3.81	3.32	9.33	5.51	4.01	6.45	9.27
C1=C(c2ccccc2)NC2=N[C@H]3CCCC[C@@H]3N2C1c1ccccc1 (stereo not given in full)	26.1	42.2	–	26	25.3	26.6	26.3	24.8	–	22.1	43.4	28.6	22.2	35.5
O=C(Cn1c(C(=O)/C=C/c2ccc(Cl)c(Cl)c2)nc2ccccc21)c1ccccc1	> 100	36.7	57.2	> 100	39.4	86.2	50.2	56	–	76.6	33.3	> 100	73.2	> 100
COC(=O)/C=C1\C(=O)Nc2ccc(Br)cc21	4.73	3.92	3.27	3.22	5.05	7.75	3.17	5.55	2.34	3.09	1.17	3.2	5.84	5.6
NC(N)=NS(=O)(=O)c1ccc(NCc2cccc3c(=O)c4ccc(Cl)cc4oc23)cc1	> 14.6	5.94	7.17	> 16.8	7.3	> 19.2	> 18.9	> 12.1	> 7.85	> 14.5	> 7.9	> 24.1	> 18	> 23.7
CC(=O)/C=C1/C(=O)C(CC(C)C)=C1CC(C)C	> 100	> 100	> 100	> 100	–	> 100	> 100	> 100	> 100	> 100	> 100	> 100	> 100	> 100
COc1ccc(/C=C2\CC3C4CC=C5C[C@@H](N6CCCC6)CC[C@]5(C)C4CC[C@]3(C)[C@H]2O)cc1OC (stereo not given in full)	15.8	42.4	25.2	50	17.4	16.7	19	18.5	16	19.9	50	16	17.1	26.6
CCCCCCCCC#CCCCCCCC(F)C(=O)O (stereo not given)	> 100	83.6	> 100	> 100	> 100	> 100	> 100	> 100	> 100	> 100	> 100	–	> 100	> 100
COc1ccc2c(c1)C1Oc3ccccc3CC1CO2 (stereo not given)	> 100	50	88.9	> 100	> 100	> 100	> 100	75.8	> 100	> 100	> 100	> 100	> 100	> 100

Structure (SMILES)	TGI (U251 CNS) [µM]	TGI (HL-60(TB) leukemia) [µM]	TGI (RXF 393 renal) [µM]	TGI (SW-620 colon) [µM]	TGI (NCI-H460 lung) [µM]	TGI (MALME-3M melanoma) [µM]	TGI (OVCAR-5 ovarian) [µM]	TGI (UO-31 renal) [µM]	TGI (NCI-H522 lung) [µM]	TGI (TK-10 renal) [µM]	TGI (CCRF-CEM leukemia) [µM]	TGI (UACC-62 melanoma) [µM]	TGI (OVCAR-4 ovarian) [µM]	TGI (T-47D breast) [µM]
COc1ccc(-n2c(C)nc3ccc(NC4OCC(OC(C)=O)C(OC(C)=O)C4OC(C)=O)cc3c2=O)cc1 (stereo not given)	> 100	> 100	> 100	> 100	> 100	> 100	> 100	> 100	> 100	> 100	–	> 100	> 100	> 100
CCN1C(c2ccccc2)=CC(c2ccccc2)(C(Cl)(Cl)Cl)C=C1c1ccccc1	> 100	2.73	72.2	> 100	23.3	24	79	> 100	> 100	> 100	> 100	–	> 100	2.29
C=C(Cl)C(Cl)(CBr)CCCC(C)C (stereo not given)	21.9	> 55.1	44.2	> 84	30.2	> 100	35.6	39.2	> 100	32.4	> 100	> 100	> 100	> 41.4
COc1ccccc1OC/C(N=Cc1cccnc1)=N/NC(=O)c1ccncc1	> 100	> 100	> 100	> 100	> 100	> 100	> 100	–	> 100	> 100	> 100	> 100	> 100	> 100
COP(=O)(OC)[C@@](O)(c1ccccc1)[C@@H](O)[C@@H](O)c1ccccc1	> 100	> 100	> 100	> 100	> 100	> 100	> 100	> 100	> 100	> 100	50.9	> 100	> 100	> 100
Cc1cc(NS(=O)(=O)c2ccc(NC(=O)c3ccc4nc5ccccc5c(Nc5ccc(S(N)(=O)=O)cc5)c4c3)cc2)no1	64.7	56.2	58.4	72.3	53.1	61.8	65.8	43.4	37.7	82.9	78.3	67.7	89.9	71.3
COC(=O)/C=C1/OC(c2ccccc2)=C(Br)C1=O	> 100	> 100	> 100	36.7	> 100	> 100	> 100	> 100	62.2	> 100	> 100	> 100	> 100	> 100
O=C(c1ccsc1)c1nccc2c1cnc1ccccc12	> 100	6.65	> 100	> 100	> 100	> 100	> 100	> 100	62	> 100	> 100	> 100	> 100	> 100
COc1cccc(-c2nc(N)c(C#N)c3c2CCS(=O)(=O)c2ccc(C)cc2-3)c1	> 100	37.5	–	> 100	> 100	> 100	> 100	> 100	> 25.6	> 100	65.1	> 100	> 100	> 100
CCOC(=O)C1Cc2ccc(C)cc2C1=O (stereo not given)	> 100	69.9	–	> 100	> 100	> 100	> 100	> 100	–	> 100	> 100	> 100	> 100	> 100
CC1=NN(c2ccccc2Cl)C2(C1)C(Cl)C(=O)N2c1nc2ccccc2s1 (stereo not given)	76.5	60.6	> 100	> 100	> 100	> 100	> 100	> 100	35	> 100	–	> 100	> 100	> 100
CC(Oc1ccc(Cl)cc1Cl)C(=O)NN1C(=O)CC(=O)NC1=S (stereo not given)	> 100	91.8	> 100	> 100	> 100	> 100	> 100	> 100	> 100	> 100	–	> 100	> 100	> 100
CC1(c2cccc(C(F)(F)F)c2)CC(c2cccc(C(F)(F)F)c2)=C(C#N)C(=C(C#N)C#N)N1 (stereo not given)	35	35.1	31.4	52.1	45.8	32.4	32.8	33.4	–	30.8	24.1	31.3	30.8	41.7
CCc1n[nH]c(=O)n1N	> 100	> 100	–	> 100	> 100	> 100	> 100	> 100	> 100	> 100	> 100	> 100	> 100	> 100
CC1(C)COC(c2cccc(C(=O)c3ccccc3)c2)=N1	> 100	58	–	> 100	> 100	> 100	> 100	> 100	88.1	> 100	> 100	> 100	> 100	> 100
c1ccc(CSCCC(SCc2ccccc2)SCc2ccccc2)cc1	> 10	> 10	> 10	> 10	> 10	> 10	–	> 10	> 10	> 10	> 10	> 10	> 10	> 10
